According to patent publication US20230148599A1, “FUNGICIDAL MIXTURES CONTAINING PYRAZOLE DERIVATIVES” (FMC Corporation, priority 2020, published 2023):

Tests used:
Assay type in all cases: in vivo
Septoria tritici = assay: Test A: wheat leaf blotch, preventive spray on wheat seedlings; conditions: 100 = 100% disease control, 0 = no control; for pest or weed control at 50 ppm / Test A disease control rating: 50 ppm
Source text: (§1) General protocol for preparing test suspensions for Tests A-F: the test compounds were first dissolved in acetone in an amount equal to 3% of the final volume and then suspended at the desired concentration (in ppm) in acetone and purified water (50/50 mix by volume) containing 250 ppm of the surfactant PEG400 (polyhydric alcohol esters). The resulting test suspensions were then used in Tests A-F.
The test solution was sprayed to the point of run-off on wheat seedlings. The following day the seedlings were inoculated with a spore suspension of Septoria tritici (the causal agent of wheat leaf blotch) and incubated in a saturated atmosphere at 24° C. for 48 h, and then moved to a growth chamber at 20° C. for 17 days, after which time disease ratings were made.
(§2) A rating of 100 indicates 100% disease control and a rating of 0 indicates no disease control (relative to the controls). A dash (−) indicates the compound was not tested.

[1] = tested on: Puccinia recondita f. sp. tritici; assay: Test B: wheat leaf rust, preventive spray on wheat seedlings; conditions: 100 = 100% disease control, 0 = no control; for pest or weed control at 50 ppm / Test B disease control rating: 50 ppm
Source text: as §1
The test solution was sprayed to the point of run-off on wheat seedlings. The following day the seedlings were inoculated with a spore suspension of Puccinia recondita f. sp. tritici (the causal agent of wheat leaf rust) and incubated in a saturated atmosphere at 20° C. for 24 h, and then moved to a growth chamber at 20° C. for 7 days, after which time disease ratings were made.
as §2

Phakopsora pachyrhizi = assay: Test D: Asian soybean rust, preventive spray on soybean seedlings; conditions: 100 = 100% disease control, 0 = no control; for pest or weed control at 50 ppm / Test D disease control rating: 50 ppm
Source text: as §1
The test solution was sprayed to the point of run-off on soybean seedlings. The following day the seedlings were inoculated with a spore suspension of Phakopsora pachyrhizi (the causal agent of Asian soybean rust) and incubated in a saturated atmosphere at 22° C. for 24 h and then moved to a growth chamber at 22° C. for 8 days, after which time visual disease ratings were made.
as §2

Botrytis cinerea = assay: Test E: tomato Botrytis, preventive spray on tomato seedlings; conditions: 100 = 100% disease control, 0 = no control; for pest or weed control at 50 ppm / Test E disease control rating: 50 ppm
Source text: as §1
The test suspension was sprayed to the point of run-off on tomato seedlings. The following day the seedlings were inoculated with a spore suspension of Botrytis cinerea (the causal agent of tomato Botrytis) and incubated in a saturated atmosphere at 20° C. for 48 h, and then moved to a growth chamber at 24° C. for 3 days, after which time visual disease ratings were made.
as §2

Alternaria solani = assay: Test F: tomato early blight, preventive spray on tomato seedlings; conditions: 100 = 100% disease control, 0 = no control; for pest or weed control at 50 ppm / Test F disease control rating: 50 ppm
Source text: as §1
The test suspension was sprayed to the point of run-off on tomato seedlings. The following day the seedlings were inoculated with a spore suspension of Alternaria solani (the causal agent of tomato early blight) and incubated in a saturated atmosphere at 27° C. for 48 h, and then moved to a growth chamber at 20° C. for 3 days, after which time visual disease ratings were made.
as §2

[2] = tested on: Blumeria graminis f. sp. tritici; assay: Test C: wheat powdery mildew, preventive spray on wheat seedlings; conditions: 50 ppm, 100 = 100% disease control, 0 = no control
Source text: as §1
The test suspension was sprayed to the point of run-off on wheat seedlings. The following day the seedlings were inoculated with a spore dust of Blumeria graminis f. sp. tritici, (also known as Erysiphe graminis f. sp. tritici, the causal agent of wheat powdery mildew) and incubated in a growth chamber at 20° C. for 8 days, after which time visual disease ratings were made.
as §2

[3] = Zymoseptoria tritici, 456 h, read-out: Test A disease control rating
[4] = 192 h, read-out: Test B disease control rating
[5] = 216 h, read-out: Test D disease control rating
[6] = 120 h, read-out: Test E disease control rating
[7] = 120 h, read-out: Test F disease control rating

SMILES	pest or weed control at 10 ppm (Septoria tritici; Zymoseptoria tritici, 456 h, 10 ppm, read-out: Test A disease control rating) [%]	pest or weed control at 50 ppm (Septoria tritici; [3]) [%]	pest or weed control at 10 ppm ([1]; 192 h, 10 ppm, read-out: Test B disease control rating) [%]	pest or weed control at 50 ppm [1, 4] [%]	pest or weed control at 10 ppm (Phakopsora pachyrhizi; 216 h, 10 ppm, read-out: Test D disease control rating) [%]	pest or weed control at 50 ppm (Phakopsora pachyrhizi; [5]) [%]	pest or weed control at 10 ppm (Botrytis cinerea; 120 h, 10 ppm, read-out: Test E disease control rating) [%]	pest or weed control at 50 ppm (Botrytis cinerea; [6]) [%]	pest or weed control at 10 ppm (Alternaria solani; 120 h, 10 ppm, read-out: Test F disease control rating) [%]	pest or weed control at 50 ppm (Alternaria solani; [7]) [%]	Test B disease control rating [1] [%]	Test C disease control rating [2] [%]	Test D disease control rating (Phakopsora pachyrhizi) [%]	Test E disease control rating (Botrytis cinerea) [%]	Test F disease control rating (Alternaria solani) [%]	Test A disease control rating (Septoria tritici) [%]
Cc1nn(C)c(Nc2c(F)cccc2[N+](=O)[O-])c1-c1ccc(F)cc1F [Compound 118, 4-(2,4-difluorophenyl)-N-(2-fluoro-6-nitrophenyl)-1,3-dimethyl-1H-pyrazol-5-amine]	100	100	80	100	0	0	99	100	60	99	–	–	–	–	–	–
Cc1nn(C)c(Nc2c(F)cc(Cl)cc2[N+](=O)[O-])c1-c1ccc(F)cc1Cl [Compound 121, N-(4-chloro-2-fluoro-6-nitrophenyl)-4-(2-chloro-4-fluorophenyl)-1,3-dimethyl-1H-pyrazol-5-amine]	–	100	–	100	–	99	–	100	–	100	–	–	–	–	–	–
Cc1cc(F)c(Nc2c(-c3ccc(C#N)cc3Cl)c(C)nn2C)c([N+](=O)[O-])c1 [Compound 127, 3-chloro-4-[5-[(2-fluoro-4-methyl-6-nitrophenyl)amino]-1,3-dimethyl-1H-pyrazol-4-yl]benzonitrile]	–	100	–	99	–	96	–	100	–	100	–	–	–	–	–	–
Cc1nn(C)c(N(C)c2c(F)cccc2[N+](=O)[O-])c1-c1ccc(F)cc1Cl [Compound 172]	–	100	–	100	–	0	–	99	–	40	–	–	–	–	–	–
CCc1ccc(Nc2c(-c3ccc(F)cc3Cl)c(C)nn2C)c([N+](=O)[O-])c1 [compound 6]	–	–	–	–	–	–	–	–	–	–	74	27	0	55	0	–
Cc1nn(C)c(Nc2c([N+](=O)[O-])ccc(F)c2F)c1-c1ccc(F)cc1Cl [compound 7]	–	–	–	–	–	–	–	–	–	–	99	94	96	99	89	100
Cc1nn(C)c(Nc2c(Cl)cc(Br)cc2[N+](=O)[O-])c1-c1ccc(F)cc1Cl [compound 8]	–	–	–	–	–	–	–	–	–	–	99	92	73	99	73	99
Cc1nn(C)c(Nc2c(F)cc(F)cc2[N+](=O)[O-])c1-c1ccc(Cl)cc1Cl [compound 9]	–	–	–	–	–	–	–	–	–	–	100	97	0	97	99	100
Cc1nn(C)c(Nc2c(Cl)cc(F)cc2[N+](=O)[O-])c1-c1ccc(Cl)cc1Cl [compound 10]	–	–	–	–	–	–	–	–	–	–	99	48	0	68	9	100
Cc1nn(C)c(Nc2c(F)cc(Cl)cc2[N+](=O)[O-])c1-c1ccc(Cl)cc1Cl [compound 11]	–	–	–	–	–	–	–	–	–	–	98	97	0	98	99	100
Cc1nn(C)c(Nc2c(F)cccc2[N+](=O)[O-])c1-c1ccc(Cl)cc1F [compound 12]	–	–	–	–	–	–	–	–	–	–	99	81	0	97	53	100
Cc1nn(C)c(Nc2c(F)cc(F)cc2[N+](=O)[O-])c1-c1ccc(Cl)cc1F [compound 13]	–	–	–	–	–	–	–	–	–	–	99	97	19	68	89	100
Cc1ccc(Nc2c(-c3ccc(C#N)cc3Cl)c(C)nn2C)c([N+](=O)[O-])c1 [compound 14]	–	–	–	–	–	–	–	–	–	–	97	83	48	96	83	100
COc1ccc(Nc2c(-c3c(F)cccc3F)c(C)nn2C)c([N+](=O)[O-])c1 [compound 87]	–	–	–	–	–	–	–	–	–	–	99	98	0	98	93	–
COc1ccc(Nc2c(-c3ccc(F)cc3F)c(C)nn2C)c([N+](=O)[O-])c1 [compound 88]	–	–	–	–	–	–	–	–	–	–	97	84	0	99	9	–
COc1ccc(Nc2c(-c3c(F)cc(F)cc3Cl)c(C)nn2C)c([N+](=O)[O-])c1 [compound 89]	–	–	–	–	–	–	–	–	–	–	100	99	80	99	99	–
Cc1ccc(Nc2c(-c3c(F)cc(F)cc3Cl)c(C)nn2C)c([N+](=O)[O-])c1 [compound 106]	–	–	–	–	–	–	–	–	–	–	100	98	0	99	68	–
Cc1ccc(Nc2c(-c3ccc(F)cc3F)c(C)nn2C)c([N+](=O)[O-])c1 [compound 107]	–	–	–	–	–	–	–	–	–	–	91	61	0	98	0	–
